Values quoted from earlier work, collected in PubChem BioAssay AID1259409 (Chemical Carcinogenesis Research Information System (CCRIS), 2018).

Test system: rodent chemically induced tumor inhibition, incidence and multiplicity
Test: CCRIS tumor inhibitor studies
Settings: Promoter: NONE USED

For `COc1cc(C)c(/C=C/C(C)=C/C=C/C(C)=C/C(=O)O)c(C)c1C`, the “tumour outcome (control, treated, inhibition, significance)” value (Carcinogen: N-METHYL-N-NITROSOUREA, 684-93-5, Dose [Inhibitor]: 75 MG/KG DIET DAILY FOR 55 WK STARTING 1 WK AFTER LAST CARCINOGEN EXPOSURE (STUDY DURATION: 65 WK), Route [Inhibitor]: ORAL, Species: HAMSTER, Strain/Sex: SYRIAN/MALE, Target Tissue: Type of Lesion: TRACHEA: TUMOR, Dose [Carcinogen]: 1% FOR 7 SECONDS 2/WK FOR 9 WK) is given as 30/37 (81%), 27/37 (73%), 10%, not significant, the “tumour outcome (control, treated, inhibition, significance)” value (Carcinogen: N-METHYL-N-NITROSOUREA, 684-93-5, Dose [Inhibitor]: 150 MG/KG DIET DAILY FOR 55 WK STARTING 1 WK AFTER LAST CARCINOGEN EXPOSURE (STUDY DURATION: 65 WK), Route [Inhibitor]: ORAL, Species: HAMSTER, Strain/Sex: SYRIAN/MALE, Target Tissue: Type of Lesion: TRACHEA: TUMOR, Dose [Carcinogen]: 1% FOR 7 SECONDS 2/WK FOR 9 WK) is given as 30/37 (81%), 24/38 (63%), 22%, not significant and the “tumour outcome (control, treated, inhibition, significance)” value (Carcinogen: N-METHYL-N-NITROSOUREA, 684-93-5, Dose [Inhibitor]: 150 MG/KG DIET DAILY FOR 55 WK STARTING 1 WK AFTER LAST CARCINOGEN EXPOSURE (STUDY DURATION: 66 WK), Route [Inhibitor]: ORAL, Species: HAMSTER, Strain/Sex: SYRIAN/MALE, Target Tissue: Type of Lesion: TRACHEA: TUMOR, Dose [Carcinogen]: 1% FOR 7 SECONDS 2/WK FOR 10 WK) is given as 32/38 (84%), 34/39 (87%), -4%, not significant. The “tumour outcome (control, treated, inhibition, significance)” value (Carcinogen: N-METHYL-N-NITROSOUREA, 684-93-5, Dose [Inhibitor]: 150 MG/KG DIET DAILY FOR 55 WK STARTING 1 WK AFTER LAST CARCINOGEN EXPOSURE (STUDY DURATION: 67.5 WK), Route [Inhibitor]: ORAL, Species: HAMSTER, Strain/Sex: SYRIAN/MALE, Target Tissue: Type of Lesion: TRACHEA: TUMOR, Dose [Carcinogen]: 1% FOR 7 SECONDS 2/WK FOR 11.5 WK) was 24/40 (60%), 24/40 (60%), 0%, not significant.

In the case of `CC(O)CCC(=O)c1ccccc1` (configuration not stated), the “tumour outcome (control, treated, inhibition, significance)” value (Carcinogen: 4-(METHYLNITROSAMINO)-1-(3-PYRIDYL)-1-BUTANONE, 64091-91-4, Dose [Inhibitor]: 0, 25 UMOL IN 0.1 ML CORN OIL ONCE 2 HR PRIOR TO CARCINOGEN DOSE (STUDY DURATION: 16 WK), Route [Inhibitor]: GAVAGE, Species: MOUSE, Strain/Sex: STRAIN-A/FEMALE, Target Tissue: Type of Lesion: LUNG: ADENOMA, Dose [Carcinogen]: 10 UMOL IN 0.1 ML SALINE ONCE) is given as 100%, 95%, 5%, not significant and the “tumour outcome (control, treated, inhibition, significance)” value (Carcinogen: 4-(METHYLNITROSAMINO)-1-(3-PYRIDYL)-1-BUTANONE, 64091-91-4, Dose [Inhibitor]: 0, 25 UMOL IN 0.1 ML CORN OIL ONCE 2 HR PRIOR TO CARCINOGEN DOSE (STUDY DURATION: 16 WK), Route [Inhibitor]: GAVAGE, Species: MOUSE, Strain/Sex: STRAIN-A/FEMALE, Target Tissue: Type of Lesion: LUNG: TUMOR, Dose [Carcinogen]: 10 UMOL IN 0.1 ML SALINE ONCE) is given as 100%, 100%, 0%, not significant.

In the case of `CC(=O)O[C@H]1CC[C@@]2(C)C(=CC[C@@H]3[C@@H]2CC[C@]2(C)C(=O)CC[C@@H]32)C1`, the “tumour outcome (control, treated, inhibition, significance)” value (Carcinogen: 7,12-DIMETHYLBENZ[A]ANTHRACENE, 57-97-6, Dose [Inhibitor]: 0, 5 MG/100 G BW 1/WK FOR 150 D BEGINNING POST CARCINOGEN TREATMENT (STUDY DURATION: 150 D), Route [Inhibitor]: SUBCUTANEOUS, Species: RAT, Strain/Sex: WISTAR/FEMALE, Target Tissue: Type of Lesion: MAMMARY GLAND: ADENOCARCINOMA, Dose [Carcinogen]: 4 MG IN 0.1 ML OF SESAME OIL INJECTED ONCE INTO THE EXPOSED MAMMARY TISSUE OF HYPERPROLACTINEMIC RATS ON DAY 73 OF AGE) is listed as 8/11 (73%), 0/10 (0%), 100%, p<0.01.
